# According to patent US4565811A, “Sodium salt of ursodeoxycholic sulphate” (Istituto Biologico Chemioterapico "ABC" S.p.A., priority 1983, dated 1986):
# Read-outs that look alike come from different tables or passages of the source.
# Tests used:
# [1] = tested on: hyperdislipidemia caused by Triton WR-1339 in the rat; experiment: Action on the hyperdislipidemia caused by Triton WR-1339 in the rat; type: in vivo, Albinus rats (Witar); conditions: for Alfa-Lipoproteins: Increase towards Group 2 / Beta-Lipoproteins: Inhibition towards Group 2 / Beta/alfa ratio: Inhibition towards Group 2 / Total cholesterol: Inhibition in comparison with Group 2 / Total lipids: Inhibition in comparison with Group 2 / Triglycerids: Inhibition in comparison with Group 2: vs Group 2 (Triton control)
# Description: Action on the hyperdislipidemia caused by Triton WR-1339 in the rat
# Albinus rats (Witar) of 300-320 g each, having been fed only with water "ad libitum" for 12 hours, were treated with US and UA, by oral route, 4 hours before and 15 hours after the administration intraperitenously of Triton WR-1339 at the dosage of 300 mg/kg in 10 ml/kg of physiologic solution at 0.9%.
# US and UA dosages were 25, 50 and 100 mg/kg respectively and the rats were divided in the following groups of 10 animals each.
# Group 1: Controls treated with 10 ml/kg of physiological solution at 0.9% orally.
# Group 2: Controls treated with 300 mg/kg of Triton WR-1339 i.p. and 10 ml/kg of carboxy methyl cellulose (CMC) at 0.5%.
# Group 3, 4 and 5: UA at 25, 50 and 100 mg/kg respectively suspended in 10 ml/kg of CMC at 0.5%.
# Groups 6, 7 and 8: US at 25, 50 and 100 mg/kg respectively dissolved in 10 ml/kg of physiologic solution.
# The following Tables 1 and 2 list the results of blood-tests from addominal aorta of rats sacrificed 5 hours after the last treatment: […]
# [2] = known compounds; cited from earlier work
# [3] = cited from earlier work
# [4] = Solubility in water / acidity; type: physicochemical
# [5] = 25 mg/kg os, Triton WR-1339 rat
# [6] = 50 mg/kg os, Triton WR-1339 rat
# [7] = 100 mg/kg os, Triton WR-1339 rat
structure (smiles),measurement,setting,value
"C[C@H](CCC(=O)O)[C@H]1CC[C@H]2[C@@H]3[C@@H](O)C[C@@H]4C[C@H](O)CC[C@]4(C)[C@H]3CC[C@]12C [UA, ursodeoxycholic acid, reference compound]",Alfa-Lipoproteins Average ± SD,[1]; [5],"27,6 ± 9,8 mg/100 ml serum"
same,Beta-Lipoproteins Average ± SD,[1]; [5],"221,17 ± 38,4 mg/100 ml serum"
same,Beta/alfa ratio Average ± SD,[1]; [5],"8,95 ± 3,5 mg/100 ml serum"
same,Total cholesterol Average ± SD,[1]; [5],"244,8 ± 34,5 mg/100 ml serum"
same,Total lipids Average ± SD,[1]; [5],"3011,4 ± 513,6 mg/100 ml serum"
same,Triglycerids Average ± SD,[1]; [5],"1167,14 ± 180,5 mg/100 ml serum"
same,Alfa-Lipoproteins: Increase towards Group 2,[1]; 25 mg/kg os,"+23,2%"
same,Beta-Lipoproteins: Inhibition towards Group 2,[1]; 25 mg/kg os,"-19,1%"
same,Beta/alfa ratio: Inhibition towards Group 2,[1]; 25 mg/kg os,"-28,2%"
same,Total cholesterol: Inhibition in comparison with Group 2,[1]; 25 mg/kg os,"-15,9%"
same,Total lipids: Inhibition in comparison with Group 2,[1]; 25 mg/kg os,"-21,1%"
same,Triglycerids: Inhibition in comparison with Group 2,[1]; 25 mg/kg os,"-11,0%"
same,Alfa-Lipoproteins Average ± SD,[1]; [6],"41,7 ± 11,3 mg/100 ml serum"
same,Beta-Lipoproteins Average ± SD,[1]; [6],"133,7 ± 60,4 mg/100 ml serum"
same,Beta/alfa ratio Average ± SD,[1]; [6],"3,88 ± 1,73 mg/100 ml serum"
same,Total cholesterol Average ± SD,[1]; [6],"175,47 ± 54,26 mg/100 ml serum"
same,Total lipids Average ± SD,[1]; [6],"2517,3 ± 557,6 mg/100 ml serum"
same,Triglycerids Average ± SD,[1]; [6],"893,6 ± 298,1 mg/100 ml serum"
same,Alfa-Lipoproteins: Increase towards Group 2,[1]; 50 mg/kg os,"+86,1%"
same,Beta-Lipoproteins: Inhibition towards Group 2,[1]; 50 mg/kg os,"-51,2%"
same,Beta/alfa ratio: Inhibition towards Group 2,[1]; 50 mg/kg os,"-68,8%"
same,Total cholesterol: Inhibition in comparison with Group 2,[1]; 50 mg/kg os,"-40,7%"
same,Total lipids: Inhibition in comparison with Group 2,[1]; 50 mg/kg os,"-34,1%"
same,Triglycerids: Inhibition in comparison with Group 2,[1]; 50 mg/kg os,"-31,9%"
same,Alfa-Lipoproteins Average ± SD,[1]; [7],"39,64 ± 11,4 mg/100 ml serum"
same,Beta-Lipoproteins Average ± SD,[1]; [7],"115,5 ± 58,7 mg/100 ml serum"
same,Beta/alfa ratio Average ± SD,[1]; [7],"3,41 ± 2,29 mg/100 ml serum"
same,Total cholesterol Average ± SD,[1]; [7],"155,2 ± 50,3 mg/100 ml serum"
same,Total lipids Average ± SD,[1]; [7],"2241,14 ± 517,4 mg/100 ml serum"
same,Triglycerids Average ± SD,[1]; [7],"628,8 ± 223,0 mg/100 ml serum"
same,Alfa-Lipoproteins: Increase towards Group 2,[1]; 100 mg/kg os,"+76,8%"
same,Beta/alfa ratio: Inhibition towards Group 2,[1]; 100 mg/kg os,"-72,6%"
same,Total cholesterol: Inhibition in comparison with Group 2,[1]; 100 mg/kg os,"-47,6%"
same,Total lipids: Inhibition in comparison with Group 2,[1]; 100 mg/kg os,"-41,3%"
same,Triglycerids: Inhibition in comparison with Group 2,[1]; 100 mg/kg os,"-52,1%"
same,Dose dependence of activity inhibiting the hyperdislipidemia,"[1]; 25, 50 and 100 mg/kg oral, Triton WR-1339 rat",depends on the dosage
same,Solubility in water,[2],pratically insoluble in water
same,Effect on cholesterol stones,[3]; bile saturated with cholesterol,prevents the formation of cholesterol stones
same,Dissolution of radiotransparent stones,[3]; under suitable conditions,able to dissolve under suitable conditions the radiotransparent stones
CC(CCC(=O)O)C1CCC2C3C(OS(=O)(=O)O)CC4CC(OS(=O)(=O)O)CCC4(C)C3CCC12C (stereo not drawn) [ursodeoxycholic O-sulphate],Acidity,[4]; free acid,very high acidity
same,Solubility in water,[4],very soluble in water
same,Solubility in water,[4]; listed as ursosulphate acid,very soluble in water with acid reaction
